Reference: patent US10085955B2, “Methods and compositions for treatment of demyelinating diseases” (Pathologica LLC, priority 2013, dated 2018)

Columns and labels:
[1] = tested on: MOG-induced experimental autoimmune encephalomyelitis (EAE); assay: First MOG EAE protocol (murine multiple sclerosis model); assay type: in vivo, C57BL/6 mice; conditions: first 28-day study; MGBG 30 mpk BID, fingolimod 3 mpk QD; throughout/duration of experiment
Text: An experimental murine model of multiple sclerosis employing a myelin oligodendrocyte glycoprotein (MOG) peptide to induce experimental autoimmune encephalomyelitis (EAE) was employed to determine the efficacy of MGBG in preventing and treating that disease. Because of its many similarities to MS, EAE is commonly used to study pathogenesis of autoimmunity, CNS inflammation, demyelination, cell trafficking, and tolerance induction. EAE is characterized by paralysis (in some models the paralysis is remitting-relapsing), CNS inflammation and demyelination. EAE is mediated primarily by dendritic cells, myelin-specific T cells (e.g. Th1 and Th17), and M1 macrophages. B cells may also play a role in some models of EAE. Body weight also tracks disease progression. EAE is induced in C57BL/6 mice by immunization with MOG35-55 or MOG1-125 in CFA emulsion followed by administration of pertussis toxin (PTX) in PBS. The emulsion provides antigen which initiates expansion and differentiation of MOG-specific autoimmune T cells. PTX enhances EAE development by providing additional adjuvant and facilitating entrance of autoimmune T cells into the CNS.
Chronic EAE develops in C57BL/6 mice after immunization with an emulsion of MOG35-55/CFA or MOG1-125/CFA followed by injection of pertussis toxin. This model is used to test the potential of compounds to prevent or mitigate EAE disease. It can be run with the compound dosed from the time of immunization (prophylactic treatment), or with the aim of reversing the course of disease and facilitating recovery by dosing the compound from the time of EAE onset (therapeutic treatment). The model uses female C57BL/6 mice of age 10 to 14 weeks at the start of the study. Typically, EAE develops 8-18 days after immunization. EAE development is usually followed for 4 weeks (28 days) after immunization.
In prophylactic studies, treatment begins before disease onset, at the time of immunization and group assignment. Mice are assigned to treatment groups in a balanced manner to achieve groups with similar distributions of body weights. Prophylactic studies assess if treatment will affect the course of disease both before and after the first clinical signs of EAE. To compensate for the stress of treatment in prophylactic treatment studies and achieve the target disease severity, EAE may be induced with a higher dose of pertussis toxin than used in therapeutic studies. The dose of pertussis toxin is based on expected stress due to dosing (route, frequency, and formulation of vehicle).
Clinically, EAE progression is scored on a scale of 0 to 5, wherein each score represents the following clinical observations:
Inflammatory foci of approximately 20 cells were counted in each H&E stained section. When inflammatory infiltrates consisted of more than 20 cells, an estimate was made of how many foci of 20 cells were present.
The demyelination score represents an estimate of demyelinated area for each section as follows:
Unless otherwise noted, statistical analysis was performed as follows: disease incidence compared using chi-square test; mean day of EAE onset, change in body weight, and number of apoptotic cells compared using 2-tailed Student's t-test; median day of EAE onset compared using Wilcoxon's survival test; mean maximum score (MMS), end score, and demyelination scores (LFB and H&E) compared using Wilcoxon's non-parametric test.
Ten week old female C57BL/6 mice weighing 18-23 g (Taconic Farms) were divided into four groups: mock immunized (n=3) and three MOG-immunized groups receiving MGBG at 30 mpk BID (as the di-HCl monohydrate with a correction factor of 1.49), fingolimod (FTY720) at 3 mpk QD with a second mock vehicle dose, or 0.9% saline vehicle BID (n=12 each). […]

[2] = tested on: PGE2 production in carrageenan air pouch; assay: Carrageenan air pouch model; assay type: in vivo, Lewis rats; conditions: rat pouch fluid, 3 or 24 hours post-carrageenan; naproxen 10 mg/kg, dexamethasone 1 mg/kg
Text: Injection of air subcutaneously will induce the formation of a connective tissue cavity lined with cells that resemble and function like a synovial lining. This method is commonly known as the Air Pouch Model and is a useful animal model of inflammation that can be generated in a relatively short period of time. The air pouch may be created by subcutaneous (SQ) injection of a volume of sterile air in the dorsal neck region. The model may be used to test the efficacy and potency of compounds such as polyamine analogues and polyamine biosynthesis inhibitors such as MGBG in reducing various cellular and biochemical indicators of inflammation when administered as an oral (PO) gavage administration. Healthy Male Lewis rats (Charles River Laboratories, Wilmington, Mass.) weighing between 175-200 g were used. […] A correction factor of 1.49 was used to account for the dihydrochloride salt/monohydrate form of MGBG. […] Air pouches were formed on the dorsum of the rats during the last 4 days of MGBG or vehicle administration prior to carrageenan injection. Briefly, rats were anesthetized with isoflurane, during which dorsal hair was removed and 20 mL of sterile air was injected subcutaneously into the intrascapular region. Pouches were allowed to develop for the next 4 days, with re-inflation (to maintain pouch volume) of pouches 1 day prior to carrageenan injection. One hour prior to carrageenan injection, animals were given their last dose of drug (MGBG, vehicle, naproxen, or dexamethasone). A 1% suspension of carrageenan (2 mL; FMC BioPolyer, Philadelphia, Pa.) suspended in saline was injected into the pouch cavity. At either 3 hours or 24 hours post-carrageenan injection, rats were euthanized by CO2 asphyxiation and 2.5 mL of PBS (Sigma Chemical, St. Louis, Mo.) was injected directly into the pouch. The pouch was opened with surgical scissors and the pouch fluid was collected using a transfer pipette. One aliquot was collected for measurement of total cell count with differential, and the other aliquot for PGE2 determination. […]

| Structure (SMILES) | mean clinical score (scale 0 to 5) [1] | production of PGE2 (inflammatory and basal levels) [2] |
| --- | --- | --- |
| CCCCCCCCc1ccc(CCC(N)(CO)CO)cc1 [fingolimod] | 0 |  |
| COc1ccc2cc([C@H](C)C(=O)O)ccc2c1 [naproxen] |  | inhibited production of both inflammatory and basal levels |
